Results taken from US20170131257A1, “SYSTEMS AND METHODS OF REMOVING AND MANAGING HEAVY METALS” (priority 2007, published 2017).

Assays:
[1] = Mercury binding test of substrates in a salt solution
Zebra Fish = assay type: in vivo
Method: Following EPA Method 7473, a total of 44 Zebra fish were randomized into four one gallon tanks and fed an experimental or control diet for 6 days. On the seventh day the fish were not fed so that any food being digested would have been absorbed or eliminated. The fish were fed 1.0 gram of food twice a day the first day. On the second day the fish were fed 0.5 grams twice a day. On days 3-6 the fish were fed 0.5 gram once a day.
The control and experimental feed was prepared using:
9.8 g. Frozen Thawed Brine Shrimp
The corn starch and water were boiled for 2 minutes then mixed with the remaining ingredients. The basic food was divided into four groups. The study groups consisted of: the control (Group C), an experimental group in which phytic acid di-sodium salt was added to the feed at 5% by […] (Group A), an experimental group in which 15 μg mercuric iodide salt per gram of food was added (Group B), and lastly Group D in which fish were fed the above stated amounts of mercuric iodide salt and phytic acid di-sodium salt.
The analysis was conducted by a contracted company, Northwest Pacific Labs. Samples were stratified by treatment and randomly sampled. A test of atomic absorption was used to determine absorbed mercury, after calibrating the instrument.

[2] = Chelation between mercury and phytic acid at different pH levels; conditions: pH levels including acidic levels commonly found in the stomach
Text: An amount of food 72 that may contain a concentration of the heavy metal (“contaminated food”) is consumed with an amount of the ligand 74, or, near the time of consuming the ligand 74. In one implementation, the ligand 74 is phytic acid. The ligand 74 is preferably in an amount suitable for at least substantially bonding to the mercury contained within the food 72. The ligand 74 may be prepared in the form of a marinade or sauce directly applied to the food 72, or may be a separate supplement such as a pill, alternate food source, or the like. Ingestion 76 may provide mixing of the food 72 and ligand 74. When the food 72 and ligand 74 are mixed, then chelation 78 causes the mercury or other heavy metal in the food 72 to bond to the ligand 74, thereby forming a chelate 82. The chelate 82 causes food 72 containing some mercury to become a clean food 80, substantially free of the mercury. The clean food 80 proceeds to normal digestion 84, while the chelate 82 proceeds to safe egestion 86 from the body. Thus, the mercury contained within food 72 is passed through the living organism without digestion 84.

O=P(O)(O)O[C@H]1[C@H](OP(=O)(O)O)[C@@H](OP(=O)(O)O)[C@H](OP(=O)(O)O)[C@@H](OP(=O)(O)O)[C@H]1OP(=O)(O)O [Phytic Acid, phytic acid]
binding of mercury by the substrate [1]: would bind mercury | reduction of mercury absorption (Zebra Fish; Group D (phytic acid plus mercury) vs mercury alone, baselines of mercury controlled for, seven day time frame): 50% | Total Hg Wet Weight, Mean (Zebra Fish; Group D: phytic acid 5% per wt. and 15 micrograms HgI2 per gram food, fed 6 days, N=4): .1047 | absorbed mercury, group D vs mercury-alone group B (Zebra Fish; weighted sample, Mann-Whitney test, Sig=0.000): less absorbed mercury | chelation with mercury across pH [2]: can occur at a wide range of pH levels
